From patent US20220211783A1, “GMCI AND DDRI COMBINATION THERAPY FOR TREATING CANCER” (Candel Therapeutics, Inc., priority 2019, published 2022) come the findings set out here.

The subject of assay [1] is lung cell line e.g., A549, A427, H2030. The assay can be described thus: Cell viability assay (vital dye such as Presto Blue, fluorescence) of GMCI, AZD1775 and their combination. Type of assay: cell-based.
A further assay deals with lung cancer cells. The assay can be described thus: Double-stranded DNA breaks by H2AX-Ser139 staining, confocal microscopy. It counts as cell-based. As to conditions: 6 hours after addition of AZD1775 (IC50 concentration) and/or GCV.

Consider `C=CCn1c(=O)c2cnc(Nc3ccc(N4CCN(C)CC4)cc3)nc2n1-c1cccc(C(C)(C)O)n1` [AZD1775], for which the “cell viability (fluorescence normalized to samples that received no treatment)” value in assay [1] (Day 4, AZD1775 at its IC50 concentration or half of its IC50 concentration, GMCI = AdV-tk 100 MOI + ganciclovir 5 μg/ml) is on record as “cytotoxic activity”. In addition, the EC50 in assay [1] (stated as the concentration used in the lung cell line, half the IC50 given as 40 nM, read-out: EC50 concentration of the drug) came out at 80 nM. Besides, the “Double-stranded DNA breaks” value in the assay with lung cancer cells is on record as “occur”. In addition, the “H2AX(Ser139) staining” value with lung cancer cells (versus untreated cells) is listed as “large increase in H2AX staining”.
